Where a name gives a salt, the structure may show the parent alone.
Test: Drug-excipient compatibility study, 40° C./75% RH-4 W (% degradants)
Assay type: physicochemical

- % Total (40° C./75% RH-4 W): 0.11%
- Description (40° C./75% RH-4 W): Clear
- % Total (Initial): 0.09%
- Description (Initial): Clear
SMILES: CC(C)(C(=O)O)c1ccc(C(O)CCCN2CCC(C(O)(c3ccccc3)c3ccccc3)CC2)cc1 (stereo not shown) [API, Fexofenadine HCl]

From patent publication US20220184052A1, “COMPOSITION COMPRISING FEXOFENADINE” (Cellix Bio Private Limited, priority 2020, published 2022)
